Measurements published in article PMC4621912, “Anticancer activity of MPT0G157, a derivative of indolylbenzenesulfonamide, inhibits tumor growth and angiogenesis” (Oncotarget, 2015).
Like-named read-outs stand apart in the source and are kept apart here.

Experiments:
[1] = tested on: total HDAC activity in HCT116 cells; test: Total HDAC enzymatic activity assay in treated HCT116 cells; type: cell-based; conditions: Homo sapiens, read-out: HDAC inhibitory IC50 in HCT116 cells (total HDAC enzyme activity)
Description: B. HCT116 cells (1 × 10^6) treated as explained in (A), whole-cell extracts were subjected to western blotting for the indicated proteins. Quantitative analysis of acetyl-histone H3 C. and acetyl-α-tubulin D. expression in western blot were determined by ImageQuant (Molecular Dynamics, USA). E. Immunohistochemical analysis of the HDAC1, 2 and 6 expression of a tissue microarray containing normal colon tissues and tumor tissue derived from patients with colon adenocarcinoma. Scale bars are indicated. […] Total cell lysates were collected and the total HDAC enzyme activity was analyzed using HDAC activity fluorometric assay kit (Cat No. K330–100; BioVision, Milpitax, CA, USA).

MDA-MB-231 cells = test: SRB cell proliferation assay, MDA-MB-231; type: cell-based; conditions: Homo sapiens, read-out: GI50, MDA-MB-231
Description: (§1) Results are shown as mean ± SEM from three independent experiments. […] Cells (1 × 10^4) in 100 μL of medium in 96-well plates were incubated with vehicle (control) or vehicle with test compound for 12 or 24 h. After various treatments, 1 mg/mL of MTT was added and the plates were incubated at 37°C for an additional 2 h, then the cells were pelleted and lysed in 100 μL of dimethyl sulfoxide, and the absorbance at 550 nm was measured on a microplate reader. Cell proliferation was measured by the SRB assay. Cells (1 × 10^4) were incubated for 48 h with the indicated concentrations of test compounds, then were fixed with 10% trichloroacetic acid, stained for 30 min with SRB (0.4% in 1% acetic acid), and washed repeatedly with 1% acetic acid. Protein-bound dye was dissolved in 10 mM Tris base solution and the optical density at 510 nm measured.

AsPC-1 cells = test: SRB cell proliferation assay, AsPC-1; type: cell-based; conditions: Homo sapiens, read-out: GI50, AsPC-1
Description: as §1

A549 cells = test: SRB cell proliferation assay, A549; type: cell-based; conditions: Homo sapiens, read-out: GI50, A549
Description: as §1

recombinant HDAC6 = target: T1, recombinant HDAC6 (Homo sapiens, UniProt Q9UBN7); test: Inhibition of recombinant HDAC enzyme activity (fluorogenic kit), HDAC6; type: biochemical; conditions: mean ± SEM, read-out: IC50 HDAC6 (Class IIb)
T1 construct: purchased BPS Bioscience Corp
T1 sequence (Q9UBN7 1-1215): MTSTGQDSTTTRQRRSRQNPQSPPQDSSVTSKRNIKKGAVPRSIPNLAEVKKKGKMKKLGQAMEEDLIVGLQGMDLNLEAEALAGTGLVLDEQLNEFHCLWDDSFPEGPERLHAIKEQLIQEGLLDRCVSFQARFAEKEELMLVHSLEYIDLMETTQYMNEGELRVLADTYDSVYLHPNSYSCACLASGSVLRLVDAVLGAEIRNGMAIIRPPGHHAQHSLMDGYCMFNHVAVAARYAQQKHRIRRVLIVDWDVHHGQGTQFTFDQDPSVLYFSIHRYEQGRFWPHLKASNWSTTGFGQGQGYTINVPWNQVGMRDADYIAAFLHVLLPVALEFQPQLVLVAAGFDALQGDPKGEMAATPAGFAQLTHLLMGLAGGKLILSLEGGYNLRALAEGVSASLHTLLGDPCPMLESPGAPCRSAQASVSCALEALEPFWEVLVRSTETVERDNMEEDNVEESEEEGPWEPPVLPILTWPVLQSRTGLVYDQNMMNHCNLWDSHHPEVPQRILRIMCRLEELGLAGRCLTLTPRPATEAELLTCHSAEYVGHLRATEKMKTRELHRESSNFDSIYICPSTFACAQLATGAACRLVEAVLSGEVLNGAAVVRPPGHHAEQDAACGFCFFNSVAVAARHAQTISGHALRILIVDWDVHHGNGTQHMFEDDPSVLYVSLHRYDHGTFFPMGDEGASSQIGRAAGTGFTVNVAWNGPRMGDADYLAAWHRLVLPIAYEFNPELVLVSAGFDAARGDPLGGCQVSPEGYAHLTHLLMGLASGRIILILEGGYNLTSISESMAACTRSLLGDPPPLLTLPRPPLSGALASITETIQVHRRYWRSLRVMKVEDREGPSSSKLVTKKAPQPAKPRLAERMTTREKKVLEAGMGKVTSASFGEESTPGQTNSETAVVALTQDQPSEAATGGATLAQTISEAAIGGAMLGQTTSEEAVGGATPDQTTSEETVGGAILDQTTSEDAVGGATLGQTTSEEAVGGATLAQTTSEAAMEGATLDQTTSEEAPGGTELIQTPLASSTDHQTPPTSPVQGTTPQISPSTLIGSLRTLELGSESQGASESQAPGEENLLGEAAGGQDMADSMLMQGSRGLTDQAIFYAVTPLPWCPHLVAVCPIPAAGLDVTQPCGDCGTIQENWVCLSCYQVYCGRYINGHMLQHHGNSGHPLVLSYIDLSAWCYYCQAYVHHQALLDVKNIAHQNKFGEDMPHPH
Source text: (§2) Fluorogenic HDAC assay kits (BPS Bioscience Corp., San Diego, CA, USA) were used to assess the ability of HDAC inhibitors to inhibit deacetylation of lysine residues on the substrate by recombinant HDAC1, 2, 3, 4, 6, or 8 according to the manufacturer's instructions.

HCT116 cells = test: SRB cell proliferation assay, HCT116; type: cell-based; conditions: Homo sapiens, read-out: GI50, HCT116
Description: as §1

recombinant HDAC4 = target: T2, recombinant HDAC4 (Homo sapiens, UniProt P56524); test: Inhibition of recombinant HDAC enzyme activity (fluorogenic kit), HDAC4; type: biochemical; conditions: mean ± SEM, read-out: IC50 HDAC4 (Class IIa)
T2 construct: purchased BPS Bioscience Corp
Source text: as §2

recombinant HDAC1 = target: T3, recombinant HDAC1 (Homo sapiens, UniProt Q13547); test: Inhibition of recombinant HDAC enzyme activity (fluorogenic kit), HDAC1; type: biochemical; conditions: mean ± SEM, read-out: IC50 HDAC1 (Class I)
T3 construct: purchased BPS Bioscience Corp
Source text: as §2

[2] = tested on: HIF-1α and VEGF expression in HCT116 cells; test: CoCl2-induced HIF-1α / VEGF expression in HCT116 cells (western blot, RT-PCR); type: cell-based, human; conditions: 0.1 μM 24 h, then CoCl2 300 μM 4 h
Description: D. Cells were incubated as explained in (C), the levels of hypoxia-inducible factor-1α (HIF-1α), vascular endothelial growth factor (VEGF) mRNA were measured by RT-PCR.
Total RNA was isolated from cells using TRIzol reagent (Invitrogen). Single-strand cDNA for a polymerase chain reaction (PCR) template was synthesized from 5 μg of total RNA using random primers and Moloney murine leukemia virus reverse transcriptase (Promega). […] Equal amounts (1 μg) of each reverse-transcription product were PCR-amplified using Taq polymerase and 35 cycles of 1 min at 95°C, 1 min at 58°C, and 1 min at 72°C. The amplified cDNA was run on 1% agarose gels and visualized under UV light following staining with SYBR Safe DNA gel stain (Invitrogen).
Cells (1 × 10^6) were incubated for 10 min at 4°C in lysis buffer (20 mM HEPES, pH 7.4, 2 mM EGTA, 50 mM β-glycerophosphate, 0.1% Triton X-100, 10% glycerol, 1 mM DTT, 1 μg/mL of leupeptin, 5 μg/mL of aprotinin, 1 mM phenylmethylsulfonyl fluoride, and 1 mM sodium orthovanadate), were scraped off, incubated on ice for an additional10 min, and centrifuged at 17, 000 g for 30 min at 4°C. Protein samples (80 μg) were then electrophoresed on sodium dodecyl sulfate polyacrylamide gels (SDS-PAGE) and transferred onto a nitrocellulose membrane, which was then blocked by incubation for 30 min at room temperature with 5% fat-free milk in phosphate-buffered saline (PBS). Immunoblotting was performed by overnight incubation at 4°C with primary antibodies in PBS, followed by incubation for 1 h at room temperature with HRP-conjugated secondary antibodies. Bound antibodies were measured using ECL reagent (Advansta Corp., Menlo Park, CA, USA) and exposure to photographic film.

[3] = SRB cell proliferation assay, normal bone marrow stromal cells HS-5; type: cell-based; conditions: HS-5 normal bone marrow stromal cells, human normal bone marrow stromal cells
Description: as §1

[4] = tested on: HDAC (HeLa nuclear extract); parameters: method as in PMID 25113875; conditions: cited from earlier work
recombinant HDAC8 = target: T4, recombinant HDAC8 (Homo sapiens, UniProt Q9BY41); test: Inhibition of recombinant HDAC enzyme activity (fluorogenic kit), HDAC8; type: biochemical; conditions: mean ± SEM, read-out: IC50 HDAC8 (Class I)
T4 construct: purchased BPS Bioscience Corp
T4 sequence (Q9BY41 1-377): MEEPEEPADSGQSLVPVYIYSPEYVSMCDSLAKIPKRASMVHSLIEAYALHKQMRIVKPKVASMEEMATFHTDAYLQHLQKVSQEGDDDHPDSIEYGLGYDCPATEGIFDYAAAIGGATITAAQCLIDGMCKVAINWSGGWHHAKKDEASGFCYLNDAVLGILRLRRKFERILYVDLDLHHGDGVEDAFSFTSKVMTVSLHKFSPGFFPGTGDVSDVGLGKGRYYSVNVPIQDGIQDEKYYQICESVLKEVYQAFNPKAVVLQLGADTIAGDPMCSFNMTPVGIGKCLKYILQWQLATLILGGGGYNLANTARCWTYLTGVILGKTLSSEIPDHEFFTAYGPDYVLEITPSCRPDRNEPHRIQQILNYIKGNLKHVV
Source text: as §2

HCT116 xenograft tumor = test: HCT116 xenograft model; type: in vivo, nude mice; conditions: 15 mg/kg
Description: Figure 5 The effect of MPT0G157 in HCT116 xenograft model Mice bearing established HCT116 tumors (~100 mm^3) were divided into three group (n = 5) and dosed as Materials and Methods. The tumor volumes A. and body weight B. of mice were measured. Results are mean ± SEM. **p < 0.01 versus control group.
HCT116 cells were implanted subcutaneously into four week old male nude mice. When the tumors reached the average volume of 100 mm^3, the mice were randomly divided into three groups (n = 5) and then were treated with the vehicle (1% carboxymethyl cellulose + 0.5% Tween 80, 0.2 mL/mouse), MPT0G157 (15 mg/kg) by intravenously injection five on two off in the first week and intraperitoneal injection in the other weeks. The length (L) and width (W) of the tumor were measured by caliper every 3 to 4 days, and the tumor volume was calculated as L × W^2/2.

recombinant HDAC3 = target: T5, recombinant HDAC3 (Homo sapiens, UniProt O15379); test: Inhibition of recombinant HDAC enzyme activity (fluorogenic kit), HDAC3; type: biochemical; conditions: mean ± SEM, read-out: IC50 HDAC3 (Class I)
T5 construct: purchased BPS Bioscience Corp
Source text: as §2

[5] = tested on: matrigel-induced angiogenesis; test: In vivo matrigel plug angiogenesis assay; parameters: species or system nude mice; conditions: 0.1 and 1 μM in matrigel, seven days, versus control group
Source text: A. After seven days, the animals were sacrificed and the plugs were excised from the mice and photographed. Scale bar represents 0.5 cm. B. Sections of H&E, Masson's trichrome stained and CD31 stained matrigel plugs were examined by light microscopy under 200 × magnification. Scale bar = 100 μm. C. Quantification of the hemoglobin contents of matrigel plugs by spectrophotometer measured at 540 nm. Data represent the mean ± SEM. *p < 0.05 and ***p < 0.001 versus control group.
Six-week-old female nude mice were divided into four groups with three animals in each group. Mice were injected subcutaneously into the abdomens with matrigel (BD Bioscience) mixed with PBS or angiogenic factors (40 ng/ml) with/without MPT0G157 (0.1 μM and 1 μM). After seven days, the animals were sacrificed and the plugs were carefully dissected and photographed, the plugs were performed hematoxylin and eosin (H&E), Masson's trichrome stain and CD31 staining. To quantify the blood vessel formation, hemoglobin content was analyzed by Drabkin's reagent kit (Sigma Chemical, St. Louis, MO).

[6] = tested on: inflammatory factors NO, TNF-α, IL-6, PGE2; parameters: method as in PMID 25113875; conditions: cited from earlier work
recombinant HDAC2 = target: T6, recombinant HDAC2 (Homo sapiens, UniProt Q92769); test: Inhibition of recombinant HDAC enzyme activity (fluorogenic kit), HDAC2; type: biochemical; conditions: mean ± SEM, read-out: IC50 HDAC2 (Class I)
T6 construct: purchased BPS Bioscience Corp
Source text: as §2

T2 sequence (P56524 627-1084 limits assumed): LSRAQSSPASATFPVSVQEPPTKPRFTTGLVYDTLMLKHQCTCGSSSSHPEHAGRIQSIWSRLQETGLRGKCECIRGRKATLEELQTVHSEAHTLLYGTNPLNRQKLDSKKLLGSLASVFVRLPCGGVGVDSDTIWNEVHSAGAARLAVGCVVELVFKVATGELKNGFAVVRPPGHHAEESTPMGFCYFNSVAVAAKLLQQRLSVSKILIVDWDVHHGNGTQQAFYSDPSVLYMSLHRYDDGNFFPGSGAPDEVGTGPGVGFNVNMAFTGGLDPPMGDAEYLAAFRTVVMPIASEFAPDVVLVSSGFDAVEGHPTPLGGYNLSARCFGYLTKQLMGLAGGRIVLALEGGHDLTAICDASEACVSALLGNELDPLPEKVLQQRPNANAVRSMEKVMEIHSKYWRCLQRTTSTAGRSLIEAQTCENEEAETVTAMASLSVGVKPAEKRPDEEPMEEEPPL
T6 sequence (Q92769 whole entry): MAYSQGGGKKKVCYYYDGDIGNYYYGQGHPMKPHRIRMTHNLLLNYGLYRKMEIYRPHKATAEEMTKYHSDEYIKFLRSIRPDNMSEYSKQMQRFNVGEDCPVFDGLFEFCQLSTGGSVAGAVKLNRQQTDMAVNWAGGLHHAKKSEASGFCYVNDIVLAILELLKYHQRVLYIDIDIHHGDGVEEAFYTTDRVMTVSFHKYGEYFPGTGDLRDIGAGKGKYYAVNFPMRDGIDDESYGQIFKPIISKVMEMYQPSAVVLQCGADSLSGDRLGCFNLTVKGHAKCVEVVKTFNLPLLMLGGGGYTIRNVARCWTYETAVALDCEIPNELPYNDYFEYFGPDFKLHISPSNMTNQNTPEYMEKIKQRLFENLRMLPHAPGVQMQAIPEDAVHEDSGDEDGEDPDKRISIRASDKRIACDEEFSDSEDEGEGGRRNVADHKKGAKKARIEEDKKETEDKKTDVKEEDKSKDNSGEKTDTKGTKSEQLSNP
T3 sequence (Q13547 whole entry): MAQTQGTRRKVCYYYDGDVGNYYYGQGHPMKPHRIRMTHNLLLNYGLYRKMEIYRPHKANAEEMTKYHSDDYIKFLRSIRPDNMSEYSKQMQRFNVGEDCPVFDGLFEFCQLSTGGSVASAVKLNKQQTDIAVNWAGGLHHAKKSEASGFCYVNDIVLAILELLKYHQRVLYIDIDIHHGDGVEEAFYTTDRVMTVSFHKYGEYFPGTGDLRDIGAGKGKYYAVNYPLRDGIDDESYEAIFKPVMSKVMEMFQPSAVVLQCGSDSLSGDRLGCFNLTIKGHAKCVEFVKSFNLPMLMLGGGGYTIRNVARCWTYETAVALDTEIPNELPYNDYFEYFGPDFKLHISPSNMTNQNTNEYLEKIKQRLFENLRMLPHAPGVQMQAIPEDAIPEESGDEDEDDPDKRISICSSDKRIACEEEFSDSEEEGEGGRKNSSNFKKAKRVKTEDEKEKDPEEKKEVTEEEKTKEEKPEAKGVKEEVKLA
T5 sequence (O15379 whole entry): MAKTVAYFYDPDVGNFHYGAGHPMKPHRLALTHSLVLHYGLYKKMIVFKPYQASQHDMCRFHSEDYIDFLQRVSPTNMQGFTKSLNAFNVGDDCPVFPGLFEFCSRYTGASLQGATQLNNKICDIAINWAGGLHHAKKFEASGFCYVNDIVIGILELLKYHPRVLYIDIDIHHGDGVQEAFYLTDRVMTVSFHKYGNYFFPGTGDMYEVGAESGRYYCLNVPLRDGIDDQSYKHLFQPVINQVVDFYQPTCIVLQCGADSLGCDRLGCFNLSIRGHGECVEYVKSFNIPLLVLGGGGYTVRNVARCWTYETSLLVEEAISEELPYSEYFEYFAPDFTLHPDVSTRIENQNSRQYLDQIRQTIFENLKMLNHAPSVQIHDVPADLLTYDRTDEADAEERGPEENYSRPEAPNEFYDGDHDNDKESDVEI
T5 sequence (Q9Y618 395-489 partner limits assumed): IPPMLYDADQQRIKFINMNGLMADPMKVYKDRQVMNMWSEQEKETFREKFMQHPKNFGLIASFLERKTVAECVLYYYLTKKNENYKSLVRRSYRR

For `O=C(/C=C/c1cccc(S(=O)(=O)Nc2ccccc2)c1)NO` [PXD101, reference compound], which IC50 ([1]; HCT-116, 24 h) is on record?
Its IC50 is 10300 ± 2250 nM.

What about the GI50 (MDA-MB-231 cells; MDA-MB-231, 48 h) of the same compound?
Its GI50 is 241 ± 2 nM.

And the GI50 (AsPC-1 cells; ASPC1, 48 h)?
Its GI50 is greater than 1000 nM.

What about the GI50 (A549 cells; A549, 48 h) of the same compound?
Its GI50 is greater than 1000 nM.

And the IC50 (recombinant HDAC6)?
Its IC50 is 80.3 ± 8.69 nM.

What about the GI50 (HCT116 cells; HCT-116, 48 h) of the same compound?
Its GI50 is 90 ± 12 nM.

And the IC50 (recombinant HDAC4)?
The IC50 was 161 ± 2.36 nM.

Which GI50 (MDA-MB-231 cells; MDA-MB-231, 48 h) does the source give for `O=C(CCCCCCC(=O)Nc1ccccc1)NO` [SAHA] here?
The GI50 was 745 ± 43 nM.

What about the GI50 (AsPC-1 cells; ASPC1, 48 h) of the same compound?
The GI50 was greater than 1000 nM.

And the GI50 (A549 cells; A549, 48 h)?
The GI50 was greater than 1000 nM.

What about the GI50 (HCT116 cells; HCT-116, 48 h) of the same compound?
Its GI50 is 411 ± 37 nM.

Which results are given for `Cc1[nH]c2ccccc2c1CCNS(=O)(=O)c1ccc(C=CC(=O)NO)cc1` [MPT0G157, N-hydroxy-3-{4-[2-(2-methyl-1H-indol-3-yl)-ethylsulfamoyl]-phenyl}-acrylamide]?
IC50 (recombinant HDAC1): 7.69 ± 1.84 nM; CoCl2-induced HIF-1α protein expression ([2]; HCT116): markedly inhibited; CoCl2-induced VEGF mRNA expression ([2]; HCT116, RT-PCR): markedly inhibited; HIF-1α mRNA levels ([2]; HCT116, RT-PCR): did not reduce; IC50 ([1]; HCT-116, HCT116 cells treated 24 h): 470 ± 140 nM; GI50 at 48 h [3]: > 100000 nM; IC50 ([4]; HeLa nuclear extract as the HDAC source, read-out: IC50 for inhibition of HDAC activity): 2.8 ± 0.2 nM; HDAC inhibition, fold compared with PXD101 ([4]; compared with PXD101): 9.4 fold; IC50 (recombinant HDAC8): > 1000 nM; body weight loss during treatment (HCT116 xenograft tumor; HCT116 xenograft mice): no significant differences in weight loss; percent of tumor growth inhibition (TGI) (HCT116 xenograft tumor; i.v. first week then i.p., nude mice with HCT116 tumors): 50.7%; IC50 (recombinant HDAC3): 9.36 ± 0.7 nM; GI50 (MDA-MB-231 cells; MDA-MB-231, SRB assay, 48 h): 47 ± 7 nM; GI50 (AsPC-1 cells; ASPC1, SRB assay, 48 h): 103 ± 17 nM; GI50 (A549 cells; A549, SRB assay, 48 h): 307 ± 36 nM; angiogenic response (hemoglobin content of matrigel plugs) [5]: significantly suppressed the angiogenic response; suppression of inflammatory factor activities, fold compared with PXD101 [6]: 3.0–25.1 fold; IC50 (recombinant HDAC6): 14.3 ± 0.77 nM; IC50 (recombinant HDAC2): 5.13 ± 0.67 nM; GI50 (HCT116 cells; HCT-116, SRB assay, 48 h): 29 ± 2 nM; IC50 (recombinant HDAC4): > 1000 nM
